From ChEMBL document CHEMBL1201862, “PubChem BioAssay data set” (2004)
Active and inactive are the calls of the source.

Assays:
[1] = target: T1, Polyadenylate-binding protein 1 (Homo sapiens, UniProt P11940); test: PABP1 MLLE–PAM2 interaction inhibitors, dose response, miRNA deadenylation inhibitor project, biochemical, fluorescence polarization, Cy5-PAM2 peptide, secondary (AID 602260); assay type: functional; conditions: read-out: IC50_Mean
[2] = target: T1, Polyadenylate-binding protein 1; test: PABP1 MLLE–PAM2 binding inhibitor potency, dose response, biochemical, fluorescence polarization, FITC-PAM2 peptide (AID 602259); assay type: functional; conditions: read-out: IC50_Mean
Protein S100-A4 = Protein S100-A4 (Homo sapiens, UniProt P26447); test: S100A4-myosin IIA binding inhibitor potency, dose response, biochemical, fluorescence polarization, cherry-picked hits (AID 687001); assay type: functional
[3] = target: T2, Heat shock factor protein 1 (Mus musculus, UniProt P38532); test: inhibition of MG132-induced HSE-luciferase signal, confirmation, cell-based, NIH3T3, luminescence, dose retest (AID 2382); assay type: functional;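 note: NIH3T3 fibroblasts with HSF1-driven luciferase reporter stressed by proteasome inhibitor MG132; luminescence from HSF1-driven luciferase expression after 8 hours of MG132 stress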
T2 sequence (P38532 whole entry): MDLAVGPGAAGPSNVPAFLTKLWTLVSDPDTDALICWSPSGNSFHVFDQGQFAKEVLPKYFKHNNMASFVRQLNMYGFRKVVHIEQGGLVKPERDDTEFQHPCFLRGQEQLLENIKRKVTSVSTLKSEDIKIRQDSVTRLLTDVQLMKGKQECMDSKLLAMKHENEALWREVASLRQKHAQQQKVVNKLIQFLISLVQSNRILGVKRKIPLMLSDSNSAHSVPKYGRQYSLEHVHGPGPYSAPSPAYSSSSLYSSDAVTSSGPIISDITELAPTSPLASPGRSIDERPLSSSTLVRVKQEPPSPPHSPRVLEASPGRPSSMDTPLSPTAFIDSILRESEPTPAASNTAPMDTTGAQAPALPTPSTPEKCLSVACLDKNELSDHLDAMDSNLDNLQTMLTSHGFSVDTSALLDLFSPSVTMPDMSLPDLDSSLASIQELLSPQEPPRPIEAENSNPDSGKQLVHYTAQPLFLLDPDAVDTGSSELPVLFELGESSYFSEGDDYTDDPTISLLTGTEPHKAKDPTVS

Interleukin-8 [4] = target: T3, Interleukin-8 (Homo sapiens, UniProt P10145); test: Dose Response confirmation of uHTS small molecule hits for cystic fibrosis induced NFkb Inhibitors in a TNFa-induced IL8 counterscreen.; assay type: functional; conditions: read-out: IC50_Mean
T3 sequence (P10145 whole entry): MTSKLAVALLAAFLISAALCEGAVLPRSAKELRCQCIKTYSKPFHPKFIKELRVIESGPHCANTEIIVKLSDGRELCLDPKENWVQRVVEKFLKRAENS

Interleukin-8 [5] = target: T3, Interleukin-8; test: Dose Response confirmation of uHTS small molecule hits for cystic fibrosis induced NFkb Inhibitors in a PAF-induced IL8 counterscreen.; assay type: functional; conditions: read-out: IC50_Mean
[6] = StAR promoter reporter inhibition counter-screen, dose response, counter-screen for LRH-1 inverse agonist project, cell-based, luminescence, luciferase reporter (AID 651969); assay type: functional
[7] = target: Nuclear receptor subfamily 5 group A member 2 (Homo sapiens, UniProt O00482); assay type: functional, cell-based;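 note: HEK293T cells transfected with LRH-1 and a StAR promoter luciferase reporter; potency for inhibitors that lower LRH-1 driven reporter light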
Sequence of Nuclear receptor subfamily 5 group A member 2 (O00482 whole entry): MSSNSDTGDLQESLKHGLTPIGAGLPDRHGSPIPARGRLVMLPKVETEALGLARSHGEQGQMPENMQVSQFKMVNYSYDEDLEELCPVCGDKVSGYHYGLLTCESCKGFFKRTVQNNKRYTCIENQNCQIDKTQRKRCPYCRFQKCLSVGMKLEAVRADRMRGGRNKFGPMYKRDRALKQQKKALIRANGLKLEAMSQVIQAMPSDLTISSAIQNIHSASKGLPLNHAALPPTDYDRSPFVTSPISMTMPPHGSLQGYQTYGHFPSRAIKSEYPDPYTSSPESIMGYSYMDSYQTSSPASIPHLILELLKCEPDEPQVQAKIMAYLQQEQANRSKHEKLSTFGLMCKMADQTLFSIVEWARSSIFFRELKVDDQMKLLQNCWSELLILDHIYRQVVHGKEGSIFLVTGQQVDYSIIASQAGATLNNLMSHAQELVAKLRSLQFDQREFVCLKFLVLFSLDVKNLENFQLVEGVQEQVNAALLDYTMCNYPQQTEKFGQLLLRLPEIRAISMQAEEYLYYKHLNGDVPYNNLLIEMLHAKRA

Steroidogenic factor 1 = Steroidogenic factor 1 (Homo sapiens, UniProt Q13285); test: Counterscreen for inverse agonists of the liver receptor homolog-1 (LRH-1; NR5A2): Luminescence-based cell-based high throughput dose response assay to identify inverse agonists of the Steroidogenic Factor 1 Nuclear Receptor (SF1; NR5A1).; assay type: functional
Sequence of Steroidogenic factor 1 (Q13285 whole entry): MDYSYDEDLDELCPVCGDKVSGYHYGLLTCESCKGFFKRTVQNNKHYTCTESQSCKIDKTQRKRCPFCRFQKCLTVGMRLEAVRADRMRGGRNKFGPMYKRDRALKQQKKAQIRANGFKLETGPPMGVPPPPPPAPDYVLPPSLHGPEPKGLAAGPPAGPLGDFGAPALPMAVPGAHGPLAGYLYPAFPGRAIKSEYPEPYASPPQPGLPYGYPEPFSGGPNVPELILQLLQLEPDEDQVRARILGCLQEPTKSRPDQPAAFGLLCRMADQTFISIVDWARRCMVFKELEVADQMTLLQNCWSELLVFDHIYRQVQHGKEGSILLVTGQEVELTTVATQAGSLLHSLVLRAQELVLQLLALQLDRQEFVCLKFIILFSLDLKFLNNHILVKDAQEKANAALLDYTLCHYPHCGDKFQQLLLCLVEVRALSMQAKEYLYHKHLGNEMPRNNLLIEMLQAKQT

[8] = target: 5-hydroxytryptamine receptor 2A (Mus musculus, UniProt P35363); assay type: functional, cell-based;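 note: CHO-K1 cells with tagged receptor and beta-arrestin; agonist potency measured as compound-induced activation of the receptor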
Sequence of 5-hydroxytryptamine receptor 2A (P35363 whole entry): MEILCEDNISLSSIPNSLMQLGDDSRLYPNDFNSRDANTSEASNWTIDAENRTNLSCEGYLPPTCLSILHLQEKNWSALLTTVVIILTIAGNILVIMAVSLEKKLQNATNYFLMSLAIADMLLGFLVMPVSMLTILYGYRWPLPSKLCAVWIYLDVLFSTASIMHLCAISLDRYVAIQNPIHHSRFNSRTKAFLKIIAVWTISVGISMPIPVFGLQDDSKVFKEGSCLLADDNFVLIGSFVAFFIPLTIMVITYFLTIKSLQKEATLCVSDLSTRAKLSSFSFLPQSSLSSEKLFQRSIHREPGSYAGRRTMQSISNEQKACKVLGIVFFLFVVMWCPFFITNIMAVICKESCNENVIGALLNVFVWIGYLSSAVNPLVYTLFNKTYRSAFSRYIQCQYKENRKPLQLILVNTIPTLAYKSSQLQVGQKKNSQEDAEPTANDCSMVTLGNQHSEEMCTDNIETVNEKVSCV

Mu-type opioid receptor = Mu-type opioid receptor (Homo sapiens, UniProt P35372); assay type: functional, cell-based;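 note: U2OS cells with beta-arrestin recruitment to OPRM1 by beta-gal complementation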
Vero = test: Vero cell toxicity, dose response, cytotoxicity control, plate reader, cherry-pick samples (AID 687020); assay type: functional, cell-based; conditions: Chlorocebus sabaeus
Caspase-6 = Caspase-6 (Homo sapiens, UniProt P55212); test: human caspase-6 inhibitors, dose response, biochemical, VEID-R110 fluorescence, cherry-pick (AID 720632)
Sequence of Caspase-6 (P55212 24-179 limits assumed): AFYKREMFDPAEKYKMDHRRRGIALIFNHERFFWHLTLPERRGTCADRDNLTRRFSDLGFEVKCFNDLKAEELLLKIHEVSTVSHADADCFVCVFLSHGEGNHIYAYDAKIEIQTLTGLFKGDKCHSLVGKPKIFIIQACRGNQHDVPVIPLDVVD
Sequence of Caspase-6 (P55212 194-293 limits assumed): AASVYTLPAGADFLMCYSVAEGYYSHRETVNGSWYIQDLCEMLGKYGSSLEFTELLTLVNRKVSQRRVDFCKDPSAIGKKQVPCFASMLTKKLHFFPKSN

[9] = target: T4, Replicative DNA helicase DnaB (Mycobacterium tuberculosis, UniProt P9WMR3); test: DnaB intein splicing inhibitors, dose response, biochemical, cell-free fluorescence (AID 449749); assay type: functional
T4 sequence (P9WMR3 whole entry): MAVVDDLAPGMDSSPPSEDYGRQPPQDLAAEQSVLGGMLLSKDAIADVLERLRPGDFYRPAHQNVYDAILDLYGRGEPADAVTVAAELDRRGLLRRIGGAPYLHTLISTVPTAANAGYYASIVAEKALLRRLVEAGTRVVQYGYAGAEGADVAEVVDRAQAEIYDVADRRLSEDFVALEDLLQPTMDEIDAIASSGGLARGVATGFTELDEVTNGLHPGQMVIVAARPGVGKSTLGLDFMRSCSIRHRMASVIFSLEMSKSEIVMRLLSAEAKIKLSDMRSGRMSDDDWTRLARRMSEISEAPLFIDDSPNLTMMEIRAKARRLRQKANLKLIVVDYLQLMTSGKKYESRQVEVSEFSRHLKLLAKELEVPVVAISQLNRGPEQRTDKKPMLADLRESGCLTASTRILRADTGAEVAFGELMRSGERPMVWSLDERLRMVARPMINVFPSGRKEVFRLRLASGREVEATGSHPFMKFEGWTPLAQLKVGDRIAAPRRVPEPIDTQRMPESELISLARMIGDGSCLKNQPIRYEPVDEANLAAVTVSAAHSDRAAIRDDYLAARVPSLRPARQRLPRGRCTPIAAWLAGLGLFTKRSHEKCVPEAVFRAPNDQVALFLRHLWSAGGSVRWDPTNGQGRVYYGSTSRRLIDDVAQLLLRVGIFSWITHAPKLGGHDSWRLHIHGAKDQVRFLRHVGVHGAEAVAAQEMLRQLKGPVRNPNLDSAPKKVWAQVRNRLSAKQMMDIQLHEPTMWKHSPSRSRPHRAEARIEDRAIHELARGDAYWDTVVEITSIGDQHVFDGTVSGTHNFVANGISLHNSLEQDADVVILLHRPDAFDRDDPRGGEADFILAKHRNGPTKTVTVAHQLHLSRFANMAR

[10] = target: Mitochondrial peptide methionine sulfoxide reductase (Bos taurus, UniProt P54149); test: Absorbance-based biochemical high throughput dose response assay for activators of Methionine sulfoxide reductase A (MsrA).; assay type: functional
Sequence of Mitochondrial peptide methionine sulfoxide reductase (P54149 whole entry): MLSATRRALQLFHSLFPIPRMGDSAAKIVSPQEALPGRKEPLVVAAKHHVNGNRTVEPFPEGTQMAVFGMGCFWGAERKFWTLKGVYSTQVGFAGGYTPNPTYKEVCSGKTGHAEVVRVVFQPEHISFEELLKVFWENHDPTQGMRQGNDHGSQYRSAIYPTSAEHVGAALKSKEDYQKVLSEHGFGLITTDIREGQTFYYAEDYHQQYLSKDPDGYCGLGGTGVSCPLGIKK

Protein RecA = target: T5, Protein RecA (Mycobacterium tuberculosis, UniProt P9WHJ3); test: Fluorescence Cell-Free Homogeneous Dose Retest to Identify Inhibitors of RecA-Intein Splicing Activity. [Related pubchem assays (depositor defined):AID2097, AID2223, AID489010, AID492950]; assay type: functional
T5 sequence (P9WHJ3 whole entry): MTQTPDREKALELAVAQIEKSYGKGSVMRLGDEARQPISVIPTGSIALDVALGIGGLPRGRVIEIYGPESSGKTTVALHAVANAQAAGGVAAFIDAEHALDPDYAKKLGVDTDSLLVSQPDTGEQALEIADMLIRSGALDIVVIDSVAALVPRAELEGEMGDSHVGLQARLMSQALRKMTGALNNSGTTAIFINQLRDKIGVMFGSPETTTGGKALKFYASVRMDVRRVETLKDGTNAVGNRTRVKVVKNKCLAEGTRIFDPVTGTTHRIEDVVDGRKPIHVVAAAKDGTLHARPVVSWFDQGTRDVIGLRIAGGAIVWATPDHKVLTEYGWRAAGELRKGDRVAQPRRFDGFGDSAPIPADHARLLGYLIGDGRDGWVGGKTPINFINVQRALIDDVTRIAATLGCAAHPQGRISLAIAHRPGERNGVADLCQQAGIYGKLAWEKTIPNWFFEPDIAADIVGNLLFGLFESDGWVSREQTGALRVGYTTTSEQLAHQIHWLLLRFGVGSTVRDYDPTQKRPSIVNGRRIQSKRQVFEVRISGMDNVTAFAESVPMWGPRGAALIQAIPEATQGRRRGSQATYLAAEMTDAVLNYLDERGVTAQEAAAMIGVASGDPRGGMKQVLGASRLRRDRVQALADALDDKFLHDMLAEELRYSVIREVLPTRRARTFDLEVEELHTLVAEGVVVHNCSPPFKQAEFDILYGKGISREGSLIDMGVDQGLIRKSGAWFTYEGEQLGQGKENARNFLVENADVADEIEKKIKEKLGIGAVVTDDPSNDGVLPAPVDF

[11] = target: Matrix metalloproteinase-14 (Homo sapiens, UniProt P50281); test: Dose Response confirmation of uHTS hits for a small molecule inhibitors of MT1-MMP activation in a fluorescence assay set 2.; assay type: functional
Genome polyprotein = Genome polyprotein (dengue virus type 2, UniProt P29990); test: Dengue-2 NS5 methyltransferase inhibitors, primary screen, biochemical, confirmation dose response (AID 588689); assay type: functional
Sequence of Genome polyprotein (P29990 2492-3391 limits assumed): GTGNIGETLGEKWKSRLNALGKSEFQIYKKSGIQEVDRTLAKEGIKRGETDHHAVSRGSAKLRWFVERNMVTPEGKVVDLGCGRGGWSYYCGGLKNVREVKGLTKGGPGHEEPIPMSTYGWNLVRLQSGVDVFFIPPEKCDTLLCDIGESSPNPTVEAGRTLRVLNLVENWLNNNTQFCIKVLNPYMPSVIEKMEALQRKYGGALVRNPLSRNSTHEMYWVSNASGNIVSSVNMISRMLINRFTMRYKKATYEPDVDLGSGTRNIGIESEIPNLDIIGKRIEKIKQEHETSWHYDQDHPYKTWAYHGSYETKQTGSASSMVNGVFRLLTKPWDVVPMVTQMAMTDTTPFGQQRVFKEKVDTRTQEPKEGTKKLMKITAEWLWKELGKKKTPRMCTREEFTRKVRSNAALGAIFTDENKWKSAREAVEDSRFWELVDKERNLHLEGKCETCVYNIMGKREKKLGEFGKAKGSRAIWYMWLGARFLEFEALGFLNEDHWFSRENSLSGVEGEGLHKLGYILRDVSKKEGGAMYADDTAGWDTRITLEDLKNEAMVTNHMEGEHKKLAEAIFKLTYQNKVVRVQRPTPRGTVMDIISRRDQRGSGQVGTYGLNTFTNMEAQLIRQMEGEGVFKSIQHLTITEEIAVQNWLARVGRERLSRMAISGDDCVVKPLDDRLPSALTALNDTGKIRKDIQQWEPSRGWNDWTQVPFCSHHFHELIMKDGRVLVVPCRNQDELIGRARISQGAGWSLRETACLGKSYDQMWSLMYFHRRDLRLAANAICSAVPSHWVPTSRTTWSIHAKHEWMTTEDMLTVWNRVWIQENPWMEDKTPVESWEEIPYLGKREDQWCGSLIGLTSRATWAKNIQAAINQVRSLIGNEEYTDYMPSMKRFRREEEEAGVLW

Beta-galactosidase = Beta-galactosidase (Escherichia coli, UniProt Q8VNN2); test: Dose response counterscreen for EBI2 assay utilizing the enzyme, b-galactosidase.; assay type: functional
Sequence of Beta-galactosidase (Q8VNN2 whole entry): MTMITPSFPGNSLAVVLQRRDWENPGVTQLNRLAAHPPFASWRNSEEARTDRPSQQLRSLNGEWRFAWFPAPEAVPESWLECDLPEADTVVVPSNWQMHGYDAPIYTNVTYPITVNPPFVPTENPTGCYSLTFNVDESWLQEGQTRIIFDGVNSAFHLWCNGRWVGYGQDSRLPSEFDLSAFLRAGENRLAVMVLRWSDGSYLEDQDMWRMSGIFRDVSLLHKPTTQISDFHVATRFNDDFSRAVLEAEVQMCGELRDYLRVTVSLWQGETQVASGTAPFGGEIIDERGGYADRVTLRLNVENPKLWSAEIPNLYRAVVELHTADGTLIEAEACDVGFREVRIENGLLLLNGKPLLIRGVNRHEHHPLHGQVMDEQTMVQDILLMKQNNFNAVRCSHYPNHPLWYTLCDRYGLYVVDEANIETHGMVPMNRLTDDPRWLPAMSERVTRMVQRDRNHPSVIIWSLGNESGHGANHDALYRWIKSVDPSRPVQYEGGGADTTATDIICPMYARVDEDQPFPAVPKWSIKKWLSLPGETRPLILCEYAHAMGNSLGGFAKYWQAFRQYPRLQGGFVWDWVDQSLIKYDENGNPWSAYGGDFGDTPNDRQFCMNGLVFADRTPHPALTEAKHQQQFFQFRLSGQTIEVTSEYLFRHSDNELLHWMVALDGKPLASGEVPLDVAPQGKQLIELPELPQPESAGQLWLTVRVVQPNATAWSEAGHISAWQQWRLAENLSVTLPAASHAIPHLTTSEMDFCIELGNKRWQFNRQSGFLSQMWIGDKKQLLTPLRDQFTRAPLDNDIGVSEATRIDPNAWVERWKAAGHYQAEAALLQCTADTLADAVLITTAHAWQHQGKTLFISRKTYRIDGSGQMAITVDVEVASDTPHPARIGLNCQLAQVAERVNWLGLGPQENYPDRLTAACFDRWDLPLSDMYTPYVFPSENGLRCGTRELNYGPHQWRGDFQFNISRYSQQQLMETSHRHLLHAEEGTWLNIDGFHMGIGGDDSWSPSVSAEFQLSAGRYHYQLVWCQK

[12] = target: T6, Beta-2 adrenergic receptor (Homo sapiens, UniProt P07550); test: Dose response for HTS for Beta-2AR agonists via FAP method from Powderset1.; assay type: functional
T6 sequence (P07550 whole entry): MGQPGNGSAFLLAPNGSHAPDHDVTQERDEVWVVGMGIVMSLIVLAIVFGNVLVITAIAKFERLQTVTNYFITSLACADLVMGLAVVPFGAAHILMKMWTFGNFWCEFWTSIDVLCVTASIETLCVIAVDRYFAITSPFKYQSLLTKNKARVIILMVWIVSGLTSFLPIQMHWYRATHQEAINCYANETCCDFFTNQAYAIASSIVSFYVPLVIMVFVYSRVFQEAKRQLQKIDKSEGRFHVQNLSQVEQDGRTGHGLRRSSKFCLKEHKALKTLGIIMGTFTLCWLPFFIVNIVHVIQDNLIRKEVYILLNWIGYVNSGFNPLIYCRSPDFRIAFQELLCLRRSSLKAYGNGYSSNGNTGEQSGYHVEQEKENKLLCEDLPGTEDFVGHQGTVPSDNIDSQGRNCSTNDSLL

[13] = target: T6, Beta-2 adrenergic receptor; test: beta2AR agonists driving receptor internalization, dose response, cell-based, FAP fluorogen, flow cytometry, cherry pick 1 (AID 588763); assay type: functional

T1 sequence (P11940 whole entry): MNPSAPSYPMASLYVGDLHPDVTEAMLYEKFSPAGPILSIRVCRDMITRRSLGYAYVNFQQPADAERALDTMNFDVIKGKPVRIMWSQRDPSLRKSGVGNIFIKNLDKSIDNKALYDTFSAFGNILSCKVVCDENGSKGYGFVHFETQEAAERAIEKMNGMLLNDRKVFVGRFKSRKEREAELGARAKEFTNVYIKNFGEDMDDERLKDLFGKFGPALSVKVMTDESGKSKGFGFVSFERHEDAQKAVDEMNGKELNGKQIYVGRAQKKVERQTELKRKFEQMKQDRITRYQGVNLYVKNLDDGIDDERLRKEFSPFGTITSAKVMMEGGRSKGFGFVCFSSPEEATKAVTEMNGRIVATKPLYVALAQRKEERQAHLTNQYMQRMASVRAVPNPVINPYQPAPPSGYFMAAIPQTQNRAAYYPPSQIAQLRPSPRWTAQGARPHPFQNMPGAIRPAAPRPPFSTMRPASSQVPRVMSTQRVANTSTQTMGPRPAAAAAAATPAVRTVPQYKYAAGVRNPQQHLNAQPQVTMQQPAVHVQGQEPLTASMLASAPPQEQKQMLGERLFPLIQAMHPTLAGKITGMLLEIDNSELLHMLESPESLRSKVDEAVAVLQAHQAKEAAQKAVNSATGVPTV

Cc1cc2ccccc2n1CCNC(=O)c1ccc(Br)o1
IC50 [1]: > 66 µM (inactive)
IC50 [2]: > 66 µM (inactive)
AC50 (Protein S100-A4): 6.02 µM (active)

CCN(c1ccc(OC)cc1)c1[nH]cnc2ncnc1-2
EC50 [3]: 21.8 µM (active)
IC50 (Interleukin-8 [4]): > 79 µM (inactive)
IC50 (Interleukin-8 [5]): 14.5 µM (inactive)

COC(=O)c1ccc(NC(=O)CSc2nc3ccc[nH]c-3n2)cc1
IC50 [6]: 35.9 µM (inactive)
IC50 [7]: 35.9 µM (inactive)
IC50 (Steroidogenic factor 1): 0.978 µM (active)

O=C(Cn1cnc2ccccc2c1=O)N1CCN(Cc2ccc3c(c2)OCO3)CC1
EC50 [8]: 16.4 µM (inactive)
EC50 (Mu-type opioid receptor): 92.5 µM (inactive)

CC(=O)Nc1cccc(C(=O)OC(C)C(=O)NC(=O)NC2CCCCC2)c1 (stereo unspecified)
AC50 (Vero): 23.6 µM (active)

C[n+]1c2ccccc2nc2ccc(NCCO)cc21
AC50 (Caspase-6): 3.35 µM (active)
AC50 [9]: 19.9 µM (active)
EC50 [10]: 3.53 µM (active)
EC50 (Protein RecA): 2.38 µM (active)
IC50 [11]: 10.5 µM (active)
IC50 (Genome polyprotein): 18.6 µM (active)

O=C(/C=C/c1ccc(Cl)cc1)N1CCN(c2c(Cl)cccc2[N+](=O)[O-])CC1
IC50 (Beta-galactosidase): > 80 µM (inactive)

CN(CC(=O)N1CCN(c2ccccn2)CC1)S(=O)(=O)c1ccccc1
EC50 [12]: 0.0435 µM (active)
EC50 [13]: 0.274 µM (active)
